Test results from patent US7048907B2, “Synthesis, compositions and methods for the measurement of the concentration of stable-isotope labeled compounds in life forms and life form excretory products” (BioPhysics Assay Laboratory, Inc., priority 2001, dated 2006).

Columns and labels:
[1] = Assay of chelate on carboxymethyl (CM) Sephadex column (chelate formation, charge); assay type: physicochemical
Experimental: Preparation of carboxymethyl sephadex column. To two 10 ml plastic pipets cut off at the 3 ml mark and plugged with glass wool at the bottom add enough slurry to form a 2 ml volume of the CM sephadex. Wash the packed resin with 6 ml of 1 M Tris buffer pH 7.5, and 6 ml of 0.01M Tris buffer pH 7.5. […] Collect the eluants of fractions as follows. Fraction 1.3 ml of 0.01 M Tris buffer pH 7.5 and allow to drain into column. Fraction 2.1 ml of sample (gadolinium-DTPA or gadolinium chloride) and allow to drain into column. Apply 3 ml of 0.01 M Tris buffer pH 7.5 and allow to drain into column. Fraction 3.3 ml of 0.01M Tris buffer pH 7.5 and allow to drain into column. Dry all fractions at 70° C. for 76 hours, dissolve in 1 ml of 1 mM HCl and assay by atomic absorption.
(§1) Preparation of carboxymethyl Sephadex column. To two 10 ml plastic pipets which had been cut off at the 3 ml mark and plugged with glass wool at the bottom, enough slurry was added to form a 2 ml volume of the CM Sephadex. The packed resin was wash with 6 ml of 1 M Tris buffer pH 7.5, and 6 ml of 0.01M Tris buffer pH 7.5. […] Fractions were applied as follows. Fraction 1. Three ml of 0.01 M Tris buffer pH 7.5 and allow to drain into column. Fraction 2. One ml of sample (samarium-DTPA or samarium chloride) and allow to drain into column. Apply 3 ml of 0.01 M Tris buffer pH 7.5 and allow to drain into column. Fraction 3. Three ml of 0.01M Tris buffer pH 7.5 and allow to drain into column. Collect the eluant of fractions 1 through 3. Fraction 4. Column and contents.
as §1, with “were” for “had been”, “washed” for “wash”, “(lanthanum-DTPA” for “(samarium-DTPA”, “lanthanum” for “samarium”
as §1, with “were” for “had been”, “washed” for “wash”, “(Europium-DTPA” for “(samarium-DTPA”, “Europium” for “samarium”
Preparation of carboxymethyl sephadex column. To a 10 ml plastic pipet cut off at the 3 ml mark and plugged with glass wool at the bottom, add enough slurry to form a 2 ml volume of the CM sephadex. Wash the packed resin with 6 ml of 1 M Tris buffer pH 7.5, and 6 ml of 0.01M Tris buffer pH 7.5. […] Apply fractions as follows. Fraction 1. One ml of sample A and allow to drain into column.

[2] = Stability of chelates in rat serum (CM-Sephadex assay, serum binding); details: 24 hours in rat serum at room temperature
[3] = Stability of chelates to autoclaving (CM-Sephadex assay); assay type: physicochemical; details: for % of total / dpm: autoclaved 30 minutes at 121° C.
Experimental: A sample comprising 5 ml of Sm-DTPA, La-DTPA, and Eu-DTPA prepared in Examples 9, 10, and 11 were placed in 10 ml glass bottles, each capped with a grey butyl rubber cap, and the caps were crimped. Samples were autoclaved for 30 minutes at 121° C.
Five ml of each of Sm-DOTA, La-DOTA, and Eu-DOTA prepared in Examples 13, 14, and 15 were placed in 10 ml glass bottles capped with a grey butyl rubber cap and crimped. Samples were autoclaved for 30 minutes at 121° C. Samples were allowed to cool to room temperature and were assayed as described in Examples 25.

[4] = Kinetics of blood depletion and urine accumulation of chelates in the rat; assay type: in vivo; details: ^99mTc-DTPA, Gd-DTPA and Sm-DTPA simultaneously administered (Example 30), average of three rats
Experimental: One half ml of Sm-DTPA (0.01 mg/kg), dissolved in saline (pH 7), is injected into the tail vein of three rats. Samples of blood are obtained at 10, 30 and 60 minutes following injection and analyzed for Sm-DTPA by neutron activation. The percent of starting amount of the Sm-DTPA at each time interval is presented in Table 18 (last column on right). Similarly, the accumulation of Sm-DTPA in the rat urine at two times is shown in the last column of Table 18.
One half ml of Technetium-99m-DTPA (1 millicurie), Gd-DTPA (0.05 mg/kg), and Sm-DTPA (0.01 mg/kg) are each dissolved in saline (pH 7), and are injected simultaneously into the tail vein of three rats. Samples of blood are obtained at 10, 30 and 60 minutes following injection and analyzed for ^99mTc-DTPA (gamma counting), Gd-DTPA (T1 relaxation) and Sm-DTPA (neutron activation).
One half ml of Sm-DTPA, La-DTPA and Eu-DTPA (each 0.01 mg/kg), dissolved in saline (pH 7) are injected simultaneously into the tail vein of three rats. Samples of blood are obtained at 10, 30 and 60 minutes following injection and analyzed for each element by neutron activation.
Samples of Sm-DTPA, La-DTPA and Eu-DTPA (0.5 ml; 0.01 mg/kg), each dissolved in saline (pH 7), are injected sequentially at 0, 20, and 40 minutes into the tail vein of three rats. Samples of blood are obtained at 10, 30 and 60 min following each injection and analyzed for each element by neutron activation.

[5] = Fraction 1: 3 ml 0.01M Tris pH 7.5 before sample
[6] = Fraction 2: 1 ml sample then 3 ml 0.01M Tris pH 7.5 (eluate)
[7] = Fraction 3: further 3 ml 0.01M Tris pH 7.5
[8] = Fraction 4: column and contents (retained)
[9] = Fraction 1: 0.2 ml sample then 2 ml 0.01M Tris pH 7.5 (eluate)
[10] = Fraction 2: 3 ml 0.01M Tris pH 7.5
[11] = Fraction 3: column and contents (retained)
[12] = DOTA chelates, Fraction 1: 1 ml sample diluted 1:10 then 3 ml 0.01M Tris pH 7.5 (eluate)
[13] = DOTA chelates, Fraction 2: further 3 ml 0.01M Tris pH 7.5
[14] = DOTA chelates, Fraction 3: column and contents (retained)
[15] = Fraction 1: sample diluted 1:10 then 2-3 ml 0.01M Tris pH 7.5 (eluate)

Row | Compound | % eluted from the CM-Sephadex column [1] | % of total [1, 12] | dpm [1, 12] | % of total [1, 13] | dpm [1, 13] | % of total [1, 14] | % of unchelated ion retained on the column [1] | % of total [1, 5] | dpm [1, 5] | % of total [1, 6] | dpm [1, 6] | % of total [1, 7] | dpm [1, 7] | % of total [1, 8] | % of total [2, 9] | dpm [2, 9] | % of total [2, 10] | dpm [2, 10] | % of total [2, 11] | dpm [2, 11] | also measured
1 | [Cl][Sm]([Cl])[Cl] [Samarium chloride, reference compound] | – | – | – | – | – | – | 100% | 0 % of total | 0 dpm | 0 % of total | 0 dpm | 0 % of total | 0 dpm | 100 % of total | 48 % of total | 104992 dpm | 3 % of total | 5702 dpm | 49 % of total | 108299 dpm | –
2 | [Cl][La]([Cl])[Cl] [Lanthanum chloride, reference compound] | – | – | – | – | – | – | 100% | 0 % of total | 0 dpm | 0 % of total | 0 dpm | 0 % of total | 0 dpm | 100 % of total | 49 % of total | 51651 dpm | 6 % of total | 6586 dpm | 44 % of total | 46450 dpm | –
3 | [Cl][Gd]([Cl])[Cl] [Gadolinium chloride, reference compound] | – | – | – | – | – | – | 100% | 0 % of total | – | 0 % of total | – | 0 % of total | – | – | – | – | – | – | – | – | –
4 | Technetium-99m-DTPA [^99mTc-DTPA, reference compound] | – | – | – | – | – | – | – | – | – | – | – | – | – | – | – | – | – | – | – | – | Percent of initial injection, blood ([4]; blood 10 min after i.v. injection): 85% of initial injection; Percent of initial injection, blood ([4]; blood 30 min): 63% of initial injection; Percent of initial injection, blood ([4]; blood 60 min): 30% of initial injection; Percent of initial injection, urine ([4]; urine 30 min): 25% of initial injection; Percent of initial injection, urine ([4]; urine 180 min): 92% of initial injection
5 | [Cl][Eu]([Cl])[Cl] [Europium chloride, reference compound] | – | – | – | – | – | – | 100% | 0 % of total | 0 dpm | 0 % of total | 0 dpm | 0 % of total | 0 dpm | 100 % of total | 42 % of total | 2378 dpm | 5 % of total | 291 dpm | 52 % of total | 2940 dpm | dpm [1, 8]: 21244 dpm

Now from value to compound, other results behind:

Row | % eluted from the CM-Sephadex column [1] | % of total [1, 12] | dpm [1, 12] | % of total [1, 13] | dpm [1, 13] | % of total [1, 14] | Compound | % of unchelated ion retained on the column [1] | % of total [1, 5] | dpm [1, 5] | % of total [1, 6] | dpm [1, 6] | % of total [1, 7] | dpm [1, 7] | % of total [1, 8] | % of total [2, 9] | dpm [2, 9] | % of total [2, 10] | dpm [2, 10] | % of total [2, 11] | dpm [2, 11] | also measured
6 | 100% | 98 % of total | 1429326 dpm | 2 % of total | 28850 dpm | 0 % of total | O=C([O-])CN1CCN(CC(=O)[O-])CCN(CC(=O)[O-])CCN(CC(=O)[O-])CC1.[Sm+3] [Sm-DOTA] | – | – | – | – | – | – | – | – | – | – | – | – | – | – | dpm [1, 14]: 0 dpm; stability to autoclaving [3]: unstable product producing a mixture of Sm-DOTA and unchelated Sm^+3; % of total [3, 15]: 98 % of total; dpm [3, 15]: 1439622 dpm; % of total [3, 10]: 2 % of total; dpm [3, 10]: 27521 dpm; % of total [3, 11]: 0 % of total; dpm [3, 11]: 0 dpm
7 | 100% | 100 % of total | 391454 dpm | <1 % of total | 132 dpm | 0 % of total | O=C([O-])CN1CCN(CC(=O)[O-])CCN(CC(=O)[O-])CCN(CC(=O)[O-])CC1.[Eu+3] [Eu-DOTA] | – | – | – | – | – | – | – | – | – | – | – | – | – | – | dpm [1, 14]: 0 dpm; % eluted from CM-Sephadex column following autoclaving [3]: 100%; % of total [3, 15]: 100 % of total; dpm [3, 15]: 366651 dpm; % of total [3, 10]: <1 % of total; dpm [3, 10]: 1226 dpm; % of total [3, 11]: 0 % of total; dpm [3, 11]: 0 dpm
8 | 100% | 97 % of total | 410040 dpm | 3 % of total | 11681 dpm | 0 % of total | O=C([O-])CN1CCN(CC(=O)[O-])CCN(CC(=O)[O-])CCN(CC(=O)[O-])CC1.[La+3] [La-DOTA] | – | – | – | – | – | – | – | – | – | – | – | – | – | – | dpm [1, 14]: 0 dpm; % eluted from CM-Sephadex column following autoclaving [3]: 100%; % of total [3, 15]: 100 % of total; dpm [3, 15]: 400045 dpm; % of total [3, 10]: <1 % of total; dpm [3, 10]: 11 dpm; % of total [3, 11]: 0 % of total; dpm [3, 11]: 0 dpm
